{"source": "the supplement of paper PMC10307832", "assay_in_all_cases": "relative viability (nuclei count vs DMSO), 5 days (fraction); higher = more cells survive", "key": {"[1]": {"test_system": "LXF-289", "how_it_was_run": "(§1)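 Medians of duplicate plates are given as relative viability. That measure is the nuclei count in treated wells divided by the count in vehicle wells. Counts were taken on 4× images of lung cancer cell lines in 1536-well plates, 5 days after pin-tool dosing the day after seeding with one drug alone or a fixed anchor-drug dose plus five library-drug doses (not always all listed) in √10 steps.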"}, "[2]": {"test_system": "NCI-H2170", "how_it_was_run": "as §1"}, "[3]": {"test_system": "NCI-H441", "how_it_was_run": "as §1"}, "[4]": {"test_system": "NCI-H1792", "how_it_was_run": "as §1"}, "[5]": {"test_system": "RERF-LC-KJ", "how_it_was_run": "as §1"}, "[6]": {"test_system": "NCI-H1755", "how_it_was_run": "as §1"}, "[7]": {"test_system": "NCI-H1355", "how_it_was_run": "as §1"}, "[8]": {"test_system": "NCI-H522", "how_it_was_run": "as §1"}, "[9]": {"test_system": "LCLC-103H", "how_it_was_run": "as §1"}, "[10]": {"test_system": "NCI-H322M", "how_it_was_run": "as §1"}, "[11]": {"test_system": "NCI-H1915", "how_it_was_run": "as §1"}, "[12]": {"test_system": "SK-MES-1", "how_it_was_run": "as §1"}, "[13]": {"test_system": "NCI-H460", "how_it_was_run": "as §1"}, "[14]": {"test_system": "NCI-H520", "how_it_was_run": "as §1"}, "[15]": {"test_system": "NCI-H1651", "how_it_was_run": "as §1"}, "[16]": {"test_system": "NCI-H661", "how_it_was_run": "as §1"}, "[17]": {"test_system": "NCI-H2347", "how_it_was_run": "as §1"}, "[18]": {"test_system": "SW 900", "how_it_was_run": "as §1"}, "[19]": {"test_system": "PC-14", "how_it_was_run": "as §1"}, "[20]": {"test_system": "NCI-H727", "how_it_was_run": "as §1"}, "[21]": {"test_system": "NCI-H596", "how_it_was_run": "as §1"}, "[22]": {"test_system": "NCI-H3122", "how_it_was_run": "as §1"}, "[23]": {"test_system": "NCI-H650", "how_it_was_run": "as §1"}}}
{"smiles": "C[C@@H]1CN(CC(=O)Nc2ccc3c(c2)Cc2cccc(-c4cc(=O)cc(N5CCOCC5)o4)c2S3)C[C@H](C)O1", "note": "+ CC(=O)Nc1cccc(-n2c(=O)n(C3CC3)c(=O)c3c(Nc4ccc(I)cc4F)n(C)c(=O)c(C)c32)c1 [Trametinib] (partner 0.02 µM)", "values": [{"measurement": "relative viability", "setting": "[1]; first compound 0.04 µM", "value": 0.653}, {"measurement": "relative viability", "setting": "[1]; first compound 0.1265 µM", "value": 0.682}, {"measurement": "relative viability", "setting": "[1]; first compound 0.4 µM", "value": 0.658}, {"measurement": "relative viability", "setting": "[1]; first compound 4 µM", "value": 0.676}, {"measurement": "relative viability", "setting": "[2]; first compound 0.04 µM", "value": 1.04}, {"measurement": "relative viability", "setting": "[2]; first compound 0.1265 µM", "value": 0.931}, {"measurement": "relative viability", "setting": "[2]; first compound 0.4 µM", "value": 0.877}, {"measurement": "relative viability", "setting": "[2]; first compound 4 µM", "value": 0.847}, {"measurement": "relative viability", "setting": "[3]; first compound 0.04 µM", "value": 0.539}, {"measurement": "relative viability", "setting": "[3]; first compound 0.1265 µM", "value": 0.481}, {"measurement": "relative viability", "setting": "[3]; first compound 0.4 µM", "value": 0.305}, {"measurement": "relative viability", "setting": "[3]; first compound 4 µM", "value": 0.368}, {"measurement": "relative viability", "setting": "[4]; first compound 0.04 µM", "value": 0.422}, {"measurement": "relative viability", "setting": "[4]; first compound 0.1265 µM", "value": 0.444}, {"measurement": "relative viability", "setting": "[4]; first compound 0.4 µM", "value": 0.295}, {"measurement": "relative viability", "setting": "[4]; first compound 4 µM", "value": 0.385}, {"measurement": "relative viability", "setting": "[5]; first compound 0.04 µM", "value": 0.874}, {"measurement": "relative viability", "setting": "[5]; first compound 0.1265 µM", "value": 0.796}, {"measurement": "relative viability", "setting": "[5]; first compound 0.4 µM", "value": 0.757}, {"measurement": "relative viability", "setting": "[5]; first compound 4 µM", "value": 0.695}, {"measurement": "relative viability", "setting": "[6]; first compound 0.04 µM", "value": 0.779}, {"measurement": "relative viability", "setting": "[6]; first compound 0.1265 µM", "value": 0.737}, {"measurement": "relative viability", "setting": "[6]; first compound 0.4 µM", "value": 0.716}, {"measurement": "relative viability", "setting": "[6]; first compound 4 µM", "value": 0.663}, {"measurement": "relative viability", "setting": "[7]; first compound 0.04 µM", "value": 0.452}, {"measurement": "relative viability", "setting": "[7]; first compound 0.1265 µM", "value": 0.405}, {"measurement": "relative viability", "setting": "[7]; first compound 0.4 µM", "value": 0.383}, {"measurement": "relative viability", "setting": "[7]; first compound 4 µM", "value": 0.401}, {"measurement": "relative viability", "setting": "[8]; first compound 0.04 µM", "value": 0.737}, {"measurement": "relative viability", "setting": "[8]; first compound 0.1265 µM", "value": 0.749}, {"measurement": "relative viability", "setting": "[8]; first compound 0.4 µM", "value": 0.724}, {"measurement": "relative viability", "setting": "[8]; first compound 4 µM", "value": 0.816}, {"measurement": "relative viability", "setting": "[9]; first compound 0.04 µM", "value": 0.668}, {"measurement": "relative viability", "setting": "[9]; first compound 0.1265 µM", "value": 0.629}, {"measurement": "relative viability", "setting": "[9]; first compound 0.4 µM", "value": 0.68}, {"measurement": "relative viability", "setting": "[9]; first compound 4 µM", "value": 0.693}, {"measurement": "relative viability", "setting": "[10]; first compound 0.04 µM", "value": 0.402}, {"measurement": "relative viability", "setting": "[10]; first compound 0.1265 µM", "value": 0.535}, {"measurement": "relative viability", "setting": "[10]; first compound 0.4 µM", "value": 0.502}, {"measurement": "relative viability", "setting": "[10]; first compound 4 µM", "value": 0.501}, {"measurement": "relative viability", "setting": "[11]; first compound 0.04 µM", "value": 0.299}, {"measurement": "relative viability", "setting": "[11]; first compound 0.1265 µM", "value": 0.291}, {"measurement": "relative viability", "setting": "[11]; first compound 0.4 µM", "value": 0.284}, {"measurement": "relative viability", "setting": "[11]; first compound 4 µM", "value": 0.294}, {"measurement": "relative viability", "setting": "[12]; first compound 0.04 µM", "value": 0.652}, {"measurement": "relative viability", "setting": "[12]; first compound 0.1265 µM", "value": 0.53}, {"measurement": "relative viability", "setting": "[12]; first compound 0.4 µM", "value": 0.463}, {"measurement": "relative viability", "setting": "[12]; first compound 4 µM", "value": 0.405}, {"measurement": "relative viability", "setting": "[13]; first compound 0.04 µM", "value": 0.155}, {"measurement": "relative viability", "setting": "[13]; first compound 0.1265 µM", "value": 0.131}, {"measurement": "relative viability", "setting": "[13]; first compound 0.4 µM", "value": 0.13}, {"measurement": "relative viability", "setting": "[13]; first compound 4 µM", "value": 0.0347}, {"measurement": "relative viability", "setting": "[14]; first compound 0.04 µM", "value": 0.675}, {"measurement": "relative viability", "setting": "[14]; first compound 0.1265 µM", "value": 0.629}, {"measurement": "relative viability", "setting": "[14]; first compound 0.4 µM", "value": 0.626}, {"measurement": "relative viability", "setting": "[14]; first compound 4 µM", "value": 0.556}, {"measurement": "relative viability", "setting": "[15]; first compound 0.04 µM", "value": 0.874}, {"measurement": "relative viability", "setting": "[15]; first compound 0.1265 µM", "value": 0.894}, {"measurement": "relative viability", "setting": "[15]; first compound 0.4 µM", "value": 0.83}, {"measurement": "relative viability", "setting": "[15]; first compound 4 µM", "value": 0.629}, {"measurement": "relative viability", "setting": "[16]; first compound 0.04 µM", "value": 0.481}, {"measurement": "relative viability", "setting": "[16]; first compound 0.1265 µM", "value": 0.552}, {"measurement": "relative viability", "setting": "[16]; first compound 0.4 µM", "value": 0.615}, {"measurement": "relative viability", "setting": "[16]; first compound 4 µM", "value": 0.507}, {"measurement": "relative viability", "setting": "[17]; first compound 0.04 µM", "value": 0.273}, {"measurement": "relative viability", "setting": "[17]; first compound 0.1265 µM", "value": 0.331}, {"measurement": "relative viability", "setting": "[17]; first compound 0.4 µM", "value": 0.319}, {"measurement": "relative viability", "setting": "[17]; first compound 4 µM", "value": 0.238}, {"measurement": "relative viability", "setting": "[18]; first compound 0.04 µM", "value": 0.894}, {"measurement": "relative viability", "setting": "[18]; first compound 0.1265 µM", "value": 0.696}, {"measurement": "relative viability", "setting": "[18]; first compound 0.4 µM", "value": 0.892}, {"measurement": "relative viability", "setting": "[18]; first compound 4 µM", "value": 0.572}, {"measurement": "relative viability", "setting": "[19]; first compound 0.04 µM", "value": 0.872}, {"measurement": "relative viability", "setting": "[19]; first compound 0.1265 µM", "value": 0.694}, {"measurement": "relative viability", "setting": "[19]; first compound 0.4 µM", "value": 0.719}, {"measurement": "relative viability", "setting": "[19]; first compound 4 µM", "value": 0.467}, {"measurement": "relative viability", "setting": "[20]; first compound 0.04 µM", "value": 0.386}, {"measurement": "relative viability", "setting": "[20]; first compound 0.1265 µM", "value": 0.396}, {"measurement": "relative viability", "setting": "[20]; first compound 0.4 µM", "value": 0.379}, {"measurement": "relative viability", "setting": "[20]; first compound 4 µM", "value": 0.386}, {"measurement": "relative viability", "setting": "[21]; first compound 0.04 µM", "value": 0.771}, {"measurement": "relative viability", "setting": "[21]; first compound 0.1265 µM", "value": 0.757}, {"measurement": "relative viability", "setting": "[21]; first compound 0.4 µM", "value": 0.725}, {"measurement": "relative viability", "setting": "[21]; first compound 4 µM", "value": 0.768}, {"measurement": "relative viability", "setting": "[22]; first compound 0.04 µM", "value": 0.273}, {"measurement": "relative viability", "setting": "[22]; first compound 0.1265 µM", "value": 0.263}, {"measurement": "relative viability", "setting": "[22]; first compound 0.4 µM", "value": 0.212}, {"measurement": "relative viability", "setting": "[22]; first compound 4 µM", "value": 0.189}, {"measurement": "relative viability", "setting": "[23]; first compound 0.04 µM", "value": 0.954}, {"measurement": "relative viability", "setting": "[23]; first compound 0.1265 µM", "value": 1}, {"measurement": "relative viability", "setting": "[23]; first compound 0.4 µM", "value": 0.874}, {"measurement": "relative viability", "setting": "[23]; first compound 4 µM", "value": 0.697}]}
